Source: patent US20230183712A1, “METHODS FOR E[…] ACID AMMONIA LYASE ENZYMES AND ENZYMES THEREBY OBTAINED” (priority 2020, published 2023)

Legend:
E. coli = test: Growth of E. coli in media supplemented with tCA; type: cell-based, Escherichia coli; conditions: MM^full,opt, 1.5 mM tCA
Method: Microbial strains, plasmids, and growth conditions. All Escherichia coli strains were cultured in lysogeny broth (LB) (VWR International, Randor, Pa.) at 37° C. with rotary shaking at 250 rpm. All media was solidified using 1.5% (w/v) agar (Teknova Inc, Hollister, Calif.). Minimal media (MM) conditions are described in the “Optimization of growth-coupled enrichment” section below. E. coli DH5a was used as a host for the construction of the expression vectors and cultured as above only supplemented with chloramphenicol (25 μg/mL) (RPI Corp). Initial expression in MM was performed in E. coli MG1655(DE3)^ΔendA,ΔrecA and later moved to E. coli MG1655^rph+ for final experiments.
Optimization of growth-coupled enrichment. Growth was measured by seeding cultures at OD600 0.05 and monitoring cell density over time. Initial experiments used a base nitrogen-deficient minimal media (MM^N-) (33.7 mM Na2HPO4, 22 mM KH2PO4, 8.55 mM NaCl, 1 mM MgSO4, 0.1 mM CaCl2), 10 μM FeSO4, 0.4% (v/v) glycerol, 10 μg/mL thiamine, 20 μM IPTG, 12.5 μg/mL chloramphenicol, pH 7.4) that was supplemented with 9.35 mM phe (MM^phe,init) or 9.35 mM NH4Cl) Variable conditions were changed across the parameters outlined in FIG. 2, as well as moving to a more favorable strain for growth in minimal media. […]

[1] = target: T1, Anabaena variabilis phenylalanine ammonia-lyase (DM-rAvPAL/AvPAL*; C503S and C565S, SEQ ID NO:2) variant M222L (Trichormus variabilis, UniProt Q3M5Z3, C503S/C565S/M222L); test: Enzyme kinetics: production of tCA from phe (Michaelis-Menten), mutant M222L; type: biochemical; conditions: PBS pH 7.4, 37° C.
T1 construct: His-tag (N); made in house; host or cells: E. coli MG1655 rph+
T1 sequence (Q3M5Z3 whole entry M222L/C503S/C565S, looked up): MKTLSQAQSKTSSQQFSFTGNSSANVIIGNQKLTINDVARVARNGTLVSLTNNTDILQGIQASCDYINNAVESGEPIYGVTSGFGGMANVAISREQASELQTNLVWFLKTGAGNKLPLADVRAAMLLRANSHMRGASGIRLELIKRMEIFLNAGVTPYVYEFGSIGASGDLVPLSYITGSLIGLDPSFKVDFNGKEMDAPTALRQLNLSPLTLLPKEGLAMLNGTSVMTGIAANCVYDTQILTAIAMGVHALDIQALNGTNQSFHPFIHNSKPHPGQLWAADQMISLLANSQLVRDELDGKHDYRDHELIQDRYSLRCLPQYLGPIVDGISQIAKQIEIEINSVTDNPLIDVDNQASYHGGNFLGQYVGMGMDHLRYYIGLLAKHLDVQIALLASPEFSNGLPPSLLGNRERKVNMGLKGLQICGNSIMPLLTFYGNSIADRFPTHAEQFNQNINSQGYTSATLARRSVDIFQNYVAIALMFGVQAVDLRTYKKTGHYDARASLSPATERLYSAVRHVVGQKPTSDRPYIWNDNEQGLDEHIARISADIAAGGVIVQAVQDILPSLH
Method: (§1) Enzyme activity assays. The activity of all AvPAL constructs was measured by production of tCA over time. Cultures were sonicated on ice using a Sonifier SFX 150 (Branson Ultrasonics, Danbury, Conn.) (2 s on; 10 s off; 4 min; 55%), and debris was separated from the lysate by centrifuging at 10,000×g for 10 min. Ten microliters of lysate were then mixed with 190 μL of pre-warmed 50 mM phe (Tokyo Chemical Industry, Portland, Oreg.) in phosphate buffered saline (PBS) (137 mM NaCl, 2.7 mM KCl, 10 mM Na2HPO4, 2 mM KH2PO4, pH 7.4) in a 96-well F-bottom UVStar (Greiner Bio-One, Kremsmünster, Austria) microtiter plate. Absorbance at 290 nm was measured every 30 s at 37° C. using a SpectraMax M3 (Molecular Devices) plate reader.
(§2) Each construct included a N-term His-tag used for immobilized metal affinity chromatography (IMAC) purification. Briefly, overnight cell cultures were sonicated in 3 mL Equilibration buffer (300 mM NaCl, 50 mM NaH2PO4, 10 mM imidazole, 15% (w/v) glycerol, pH 8.0). The lysate was loaded onto a prepared column with 2 mL TALON Metal Affinity Resin (Clontech Laboratories, Inc., Mountain View, Calif.). […] Protein concentration was measured by Bradford method using bovine serum albumin (BSA) as the standard.
(§3) Enzyme kinetics. […] The activity of 0.1 μg of protein was measured by the production of tCA over 10 min by recording the absorbance of the reaction mix at 290 nm. […]

[2] = target: T2, Anabaena variabilis phenylalanine ammonia-lyase (DM-rAvPAL/AvPAL*; C503S and C565S, SEQ ID NO:2) variant L4P/G218S (Trichormus variabilis, UniProt Q3M5Z3, C503S/C565S/G218S/L4P); test: Enzyme kinetics: production of tCA from phe (Michaelis-Menten), mutant L4P/G218S; type: biochemical; conditions: relative to parental AvPAL*; phe 35 μM to 17.5 mM, PBS pH 7.4, 37° C.; FIG. 4a
T2 construct: His-tag (N); made in house; host or cells: E. coli MG1655 rph+
T2 sequence (Q3M5Z3 whole entry L4P/G218S/C503S/C565S, looked up): as the sequence (Q3M5Z3 whole entry M222L/C503S/C565S, looked up) above, with L4P, G218S, L222M counted along it
Method: as §1, §2, §3

Row | SMILES | growth of cells supplemented with tCA (E. coli) | catalytic efficiency (relative to AvPAL*) ([1]; compared to AvPAL*) | kcat (increase over parental AvPAL*) ([1]; relative to parental AvPAL*, phe 35 μM to 17.5 mM, FIG. 4a) | KM (fold higher than parent) [2] | kcat (increase over parental AvPAL*) [2]
1 | O=C(O)/C=C/c1ccccc1 [tCA, trans-cinnamic acid] | impaired growth |  |  |  | 
2 | N[C@@H](Cc1ccccc1)C(=O)O [phe, phenylalanine] |  | improved catalytic efficiency | 70-80% | ~2.5 × | 70-80%
